Measured values taken from patent US20110229447A1, “NUTRITIONAL SUPPORT TO PREVENT OR MODERATE BONE MARROW PARALYSIS OR NEUTROPENIA DURING ANTI-CANCER TREATMENT” (priority 2008, published 2011).

Legend:
[1] = Example 2: body weight, haematology and flow cytometry of immune cells in tumor-bearing mice on supplemented diets with or without chemotherapy; format: in vivo, C57BL/6 (H-2b) mice; settings: for Global lymphocyte population: following chemotherapy; for immune cell population / concentration: during the second (tumor-induced) phase
Method: Mice. […] The animals were distributed into 7 different group diets. There was a control group that received the diet AIN 93 for adult rodents (maintenance). Test diets were administered in doses appropriate to the animal model: (a) Ctrl diet were supplemented with 1% (w/w) L-arginine, (b) 25% of the protein was replaced by glutamine, (c) 1% (w/w) L-citrulline, (d) 1 g/Kg body weight with active hexose correlated compound, (e) 20 mg/day of RNA nucleotides and (f) 25 mg/day of lactoferrin. […] Control animals without chemotherapeutic treatment were run in parallel for all tested diets. Body weight was assessed every two days. Blood samples were obtained at day 2, 4 and 10 after the chemo-treatment and at sacrifice (14 or 28 days). An autopsy was performed and tumor mass was assessed.
Haematological Evaluation.
Flow Cytometric Analysis.

γδ T cells = settings: acid hydrolysed, diluted in media; 5%-75%; cited from earlier work
NK cell = settings: about 750 mg per day for two weeks; cited from earlier work
[2] = Example 1: body weight and haematological toxicity of chemotherapy in tumor-bearing mice
Method: Mice. Inbred eight-week-old C57BL/6 (H-2b) mice were used in the experiments. Mice were inoculated subcutaneously (s.c.) on the left flank with 1×10^6 tumor cells, and tumor growth was monitored every 2 days by caliper measurement. 6 days after the tumor inoculation the animals were treated either with oxaliplatin or doxorubicin. Tumor growth was monitored every two days after the chemotherapeutic treatment and they were sacrificed after two weeks of tumor implantation. Some experiments were carried out until 28 days post-chemo to better assess tumor growth.
Body weight was assessed every two days until sacrifice.
Blood samples were obtained at day 2 and 4 after the chemo-treatment, at day 10 and at sacrifice (14 or 28 days). An autopsy was performed and tumoral mass was assessed.
Haematological Evaluation. Red blood cell enumeration, hemoglobin and hematocrit were measured at 2, 4, 10, 14 and 28 days.
White blood cell counts and differential leukocyte formulation were examined at the same time points. Blood samples were used in addition to determine immune cell populations.
Flow Cytometric Analysis. Cell subset analysis of the CD11c^+, CD11b^+Gr-1^+ and CD11b^+Gr-1^−, CD14^+, CD19^+, CD16^+, CD56^+, CD3^+, CD8^+, CD4^+ was performed. The battery of antibodies used permitted the evaluation of: B and T cell subsets NK, NKT cells, macrophages, dendritic cells, granulocytes.

MCA-OVA tumor cells = assay: Example 2: tumor growth in mice on supplemented diets with or without chemotherapy; format: in vivo, C57BL/6 (H-2b) mice
Method: Mice. […] The animals were distributed into 7 different group diets. There was a control group that received the diet AIN 93 for adult rodents (maintenance). […] Control animals without chemotherapeutic treatment were run in parallel for all tested diets. Body weight was assessed every two days. Blood samples were obtained at day 2, 4 and 10 after the chemo-treatment and at sacrifice (14 or 28 days). An autopsy was performed and tumor mass was assessed.
Cancer Cell Lines. Methylcholanthrene (MCA) induced sarcoma cell line expressing the exogenous antigen ovalbumin (OVA) was grown in DMEM or RPMI 1640 supplemented with 2 mM L-glutamine, 10 mM HEPES, 20 μM 2-mercaptoethanol, 150 U/mL streptomycin, 200 U/mL penicillin, and 10% heat-inactivated FBS. 1×10^6 tumor cells were injected in the flank of the mice 6 days prior to the chemotherapy.
Tumor Growth Evaluation. Growth of tumors was monitored every 2 d by using calipers, and tumor volume was calculated by using the formula length×width×width×0.52 mm^3.

NC(=O)NCCC[C@H](N)C(=O)O [citrulline, L-citrulline]
Global lymphocyte population [1]: less depressed

lactoferrin
toxicity (bone marrow / blood cells) ([1]; chemotherapy treated group versus control (FIG. 11)): less toxicity
immune cell population / concentration [1]: increase in their immune cell population
Global lymphocyte population [1]: less depressed
leukocytic increase (white blood cell counts) ([1]; oxaliplatin treated animals, after day ten): leukocytic increase tended to be higher

CCNC(=O)CC[C@H](N)C(=O)O [L-theanine]
expansion of γδ T cells (γδ T cells): 15 fold

vitamin E
NK cell cytolytic activity (NK cell): significantly improved
NKG2D expression (NK cell): small but consistent induction

O=C1[O][Pt]2([NH][C@@H]3CCCC[C@H]3[NH]2)[O]C1=O [oxaliplatin]
Maximal weight loss ([1]; maximal dose 10 mg/kg): around 15%
Maximal weight loss ([2]; maximal dose 10 mg/kg, of initial body weight): around 15%
leukocyte counts ([2]; recovery starting after 7 days post chemotherapy): higher that the baseline counts

NC(=O)CC[C@H](N)C(=O)O [glutamine]
Global lymphocyte population [1]: less depressed

N=C(N)NCCC[C@H](N)C(=O)O [arginine, L-arginine]
fall of erythrocytes (RBC) ([1]; between days 6 and 10 post-chemo (FIG. 3)): prevented the marked fall of erythrocytes
immune cell population / concentration [1]: increase immune cell concentration
loss of CD3+ cells ([1]; flow cytometry, around 10 days post chemotherapy): partially modulated
tumor size (MCA-OVA tumor cells; combination with chemotherapy versus chemotherapy alone (FIG. 4)): further reduced the tumor size
progression of the implanted tumor (MCA-OVA tumor cells; compared to other diet groups): delayed progression of the implanted tumor
